Experiments:
P. aeruginosa MSC17707 = assay: Experimental pneumonia caused by Pseudomonas aeruginosa in neutropenic mice, inhalation therapy; type: in vivo; settings: for viable cell counts in the lung in comparison to the non-treatment control group: all the dose levels; for Number of intrapulmonary viable cells: 5 min inhalation 2 h after infection, count 20 h after infection, neutropenic mice, mean ± SD
Method: The therapeutic effect of arbekacin inhalation on experimental pneumonia in neutropenic mice, caused by P. aeruginosa, was compared with the therapeutic effect of amikacin and tobramycin.
Cyclophosphamide (Sigma-Aldrich Co.) was dissolved in physiological saline. Four to five week-old Crlj:CD1(ICR) male mice were immunosuppressed by intraperitoneal injection of 150 and 100 mg/kg of cyclophosphamide solution 4 days and 1 day before infection, respectively. Thereafter, pulmonary infection was induced by intranasal inoculation of amikacin- and tobramycin-resistant P. aeruginosa having the aac(6)-lae encoding an aminoglycoside modifying enzyme. The antibiotics dissolved in saline were administered to each mouse using an electronic vibrating membrane nebulizer (eFlow®, PARI Pharma GmbH, spray flow rate: approximately 0.5 ml/min) two hours after the infection, and viable cells per lung were counted 20 hours after the infection. As for the doses of arbekacin, three levels were set at 3, 10 and 30 mg/ml, and the respective doses of amikacin and tobramycin were at three levels of 10, 30, and 100 mg/ml. The inhalation duration was five minutes. Meanwhile, physiological saline was administered to a non-treatment control group.

guinea pigs = test system: guinea pigs; parameters: species or system guinea pig (male Hartley strain); settings: guinea pig, in vivo
Method: A guinea-pig cough induction model was used to investigate differences in cough induction between the sulfate and hydrochloride forms of arbekacin. The tested substances were commercially available arbekacin sulfate (ABK—H2SO4) and arbekacin hydrochloride (ABK—HCl) that was prepared from arbekacin free base according to the method described in Example 2. The concentration of dosing solutions was set to be 25 mg/ml. In addition, physiological saline was used as a negative control agent whereas citric acid (30 mg/ml) was used as a positive control agent.
Male Hartley strain guinea pigs were subjected to the experiment, with 10 animals per group. […] Cough was detected on the basis of the following indicators: observation of symptoms, analysis of a respiration pattern in the soma-side by a double-flow plethysmograph method using a multi-functional respiration measuring device (Win Pulmos-I, M-I-P-S Corporation), and pressure changes in head-side and soma-side chambers measured by a pressure transducer (blood pressure monitoring kit, Japan Becton, Dickinson and Company). The case, in which a motion of coughing in the symptom observation was noted together with typical changes in the pressure in the head-side and soma-side chambers and in the respiration pattern of the soma side at the time of coughing, was determined to be a cough reflex. […] Then, the occurrence of cough reflex was counted. […]

| number of occurrence of cough reflex / cough induction, comparison between groups (guinea pigs) | Structure (SMILES) | viable cell counts in the lung in comparison to the non-treatment control group (P. aeruginosa MSC17707) | Number of intrapulmonary viable cells (P. aeruginosa MSC17707; level of drug 3 mg/ml) | Number of intrapulmonary viable cells (P. aeruginosa MSC17707; level of drug 10 mg/ml) | Number of intrapulmonary viable cells (P. aeruginosa MSC17707; level of drug 30 mg/ml) | therapeutic effect compared to amikacin and tobramycin (P. aeruginosa MSC17707; same dosage (10 or 30 mg/ml)) | Number of intrapulmonary viable cells (P. aeruginosa MSC17707; level of drug 100 mg/ml) |
| --- | --- | --- | --- | --- | --- | --- | --- |
| – | NCC[C@H](O)C(=O)N[C@@H]1C[C@H](N)[C@@H](O[C@H]2O[C@H](CN)CC[C@H]2N)[C@H](O)[C@H]1O[C@H]1O[C@H](CO)[C@@H](O)[C@H](N)[C@H]1O [Arbekacin, arbekacin] | significantly decreased | 4.07 ± 2.18 log10 CFU/lung | 2.20 ± 0.99 log10 CFU/lung | 1.98 ± 0.83 log10 CFU/lung | significantly superior | – |
| – | NC[C@H]1O[C@H](O[C@H]2[C@H](O)[C@@H](O[C@H]3O[C@H](CO)[C@@H](O)[C@H](N)[C@H]3O)[C@H](N)C[C@@H]2N)[C@H](N)C[C@@H]1O [Tobramycin, tobramycin] | significantly decreased | – | 5.74 ± 1.57 log10 CFU/lung | 3.48 ± 1.85 log10 CFU/lung | – | 3.53 ± 1.88 log10 CFU/lung |
| – | NCC[C@H](O)C(=O)N[C@@H]1C[C@H](N)[C@@H](O[C@H]2O[C@H](CN)[C@@H](O)[C@H](O)[C@H]2O)[C@H](O)[C@H]1O[C@H]1O[C@H](CO)[C@@H](O)[C@H](N)[C@H]1O [Amikacin, amikacin] | significantly decreased | – | 5.65 ± 1.55 log10 CFU/lung | 4.46 ± 1.68 log10 CFU/lung | – | 2.65 ± 1.74 log10 CFU/lung |
| significantly higher | O=C(O)CC(O)(CC(=O)O)C(=O)O [Citric Acid, citric acid] | – | – | – | – | – | – |

— US9511143B2, “Aqueous compositions comprising arbekacin” (Meiji Seika Pharma Co., Ltd., priority 2011, dated 2016)
